Experimental data as given in patent publication US20220211796A1, “PEPTIDE ANTIBIOTICS AND METHODS OF USE THEREOF” (priority 2019, published 2022).
Values after ≈ are worked out from the molar mass of the structure shown. Square brackets hold non-standard residues; d marks the D form. Ends that are not written are not given here.

Legend:
[1] = test system: cell wall biosynthesis in S. aureus; experiment: Accumulation of UDP-N-acetylmuramyl-pentapeptide precursor; assay type: cell-based; details: 10-fold MIC, 1 h
Text: We next examined the effect of P14 and P15 on cell wall biosynthesis in live bacteria. Blockade of this biosynthetic pathway causes accumulation of the water soluble intracellular intermediate lipid II precursor UDP-MurNAc-L-Ala-D-γ-Glu-L-Lys-D-Ala-D-Ala.^40 This intermediate is detectable after extraction from the cytosol in response to antibiotic administration by chromatographic methods.
Accumulation of UDP-N-acetylmuramyl-pentapeptide precursor from S. aureus Accumulation of peptidoglycan precursor of S. aureus […] was analyzed in the presence of peptide antibiotics. Bacteria were grown at 37° C. till OD600 of 0.5 was attained. Ten times MICs of peptide antibiotics were added per ml of grown bacterial culture and allowed to stand for 1 h. After cooling the cells on ice, they were harvested by centrifugation at 4° C. for 15 min. Bacterial cells were suspended in distilled water, and then slowly stirred into boiling water for 15 min. The suspension was allowed to cool first at room temperature, then on ice. After centrifugation at 4° C. for 1 h, the supernatant was lyophilized. The lyophilized sample was dissolved in water, and pH was adjusted to 2 by addition of 20% H3PO4. The white precipitate was removed by centrifugation, and the supernatant was immediately subjected to RP-HPLC analysis and MWs were assessed by MALDI-TOF mass spectroscopy.

[2] = test system: several Gram-positive strains (with one Gram-negative strain as control); experiment: MIC / antibiotic susceptibility, strains not singled out; assay type: cell-based; details: vancomycin-sensitive bacteria
Protocol: (§1) The L-peptides identified from five different phage display libraries were catalogued as described previously and selected sequences were synthesized in D-enantiomeric form by SPPS for further investigation in several biological assays.
(§2) MICs were determined according to a 96-well microdilution protocol outlined by the Clinical and Laboratory Standard Institute (CLSI) guideline with modifications for peptide antibiotics reported by Wiegand et al.^35 Two-fold serial peptide dilutions were performed to go from 2560 μg/ml to 5 μg/ml in0.2% BSA and 0.01% acetic acid buffer in 96-well polypropylene plates (COSTAR, #3879). Dilution of bacterial suspensions (1:200) of different bacterial strains that were grown until 0.5 McFarland standard were prepared to obtain a final inoculum concentration of 8×10^5 CFU/ml in Mueller-Hinton broth.

B. subtilis ATCC 6633 = experiment: microbe, parasite or virus in culture
Protocol: as §1, §2

S. aureus ATCC 6538 = experiment: microbe, parasite or virus in culture
Protocol: as §1, §2

E. faecalis ATCC 29121 = experiment: microbe, parasite or virus in culture
Protocol: as §1, §2

[3] = test system: Methicillin-resistant S. aureus (MRSA) ATCC 43300; experiment: microbe, parasite or virus in culture
Protocol: as §1, §2

[4] = test system: high level vancomycin resistant E. faecium (vanA) ATCC 51559; experiment: microbe, parasite or virus in culture
Protocol: as §1, §2

E. coli ATCC 25992 = experiment: microbe, parasite or virus in culture
Protocol: as §1, §2

[5] = test system: low level vancomycin resistant E. faecium (vanB) ATCC 51299; experiment: microbe, parasite or virus in culture
Protocol: as §1, §2

[6] = test system: human red blood cells (hRBC); experiment: Hemolytic activity; assay type: cell-based; details: for lysis / toxicity on red blood cells: concentrations up to 256 μg/ml
Protocol: Fresh red human blood cells (hRBC) were washed and centrifuged at 3000 rpm for 5 min at 4° C. with PBS until a clear solution was obtained. Two-fold serial dilutions of each peptide in PBS from 0.5 μg/ml to 256 μg/ml were incubated with 0.25% (v/v) hRBC suspension at 37° C. for 1 h, and then centrifuged for 5 min at 3500 rpm in 96-well plate. 50 μl of the supernatant from each well was diluted with 50 μl pure water, and the OD at 415 nm was measured using microplate reader. Melittin at the same concentrations (200 μg/ml for complete lysis) was used as a positive control. Percent hemolysis was calculated according to the equation: […]
where complete hemolysis was defined as the average hemolysis of all wells containing a final concentration of melittin ranging from 50 to 400 μg/ml. Experiments were performed as triplicates at different days.

S. aureus = experiment: Time-kill kinetic assay; assay type: cell-based; details: 10×MIC, 5×MICs
Protocol: The bacteria-killing kinetics of peptides with S. aureus was measured at 5×MICs, and vancomycin was used as a positive control. An overnight culture of bacterial cells was re-suspended in fresh MH broth at density of 10^7 cells/ml, and cultured with peptides at 37° C. Viable colony forming units (CFUs) were counted by performing tenfold serial dilutions of the aliquot sample at intervals of 0, 1, 2, 4, 8, 12, and 24 hours after inoculation, and plated on MHB agar plates. Time-kill curves were plotted as Log10 (cfu ml^−1) versus time functions.

HeLa cells = experiment: Mammalian cytotoxicity (MTT) assay; details: 24 h, b121: concentrations up to 256 μg/ml
Protocol: Cervical cancer cells (HeLa) were cultured in Dulbecco's Modified Eagle's medium (DMEM) (Invitrogen #11995-073) supplemented with 10% bovine calf serum at 37° C., 5% CO2, and seeded (5×10^3 cells/well) in 96-well plate flat-bottomed plate for 24 h before the assay. […] After washing the cells with PBS, the cells were subjected to the standard yellow tetrazolium (3-(4,5-dimethylthiazol-2-yl)-2,5-diphenyltetrazolium bromide (MTT) assay protocol at final concentration of 0.5 mg/ml for 4 h in a humidified 5% CO2 atmosphere at 37° C. MTT solution was then aspirated, and the purple formazan crystals were resuspended in DMSO by incubation for 5 min at 37° C. The absorbance at 540 nm was then read using a microplate reader. Viability control (100% viability) was assigned to samples with only HeLa cells and DMEM media, 0% viability was assigned to samples with 1% added Triton-X-100 and no peptide. Experiments were performed as triplicates at different days.

[7] = read-out: Kd of vancomycin:D-Ala-D-Ala complex; cited from earlier work
[8] = relative to D-Ala-D-Ala precursor; cited from earlier work
[9] = Table 5, E. faecalis ATCC 29121
[10] = Table 5, high level vancomycin resistant E. faecium ATCC 51559

Molecule: CSLITQCGGVGC ([dC][dS][dL][dI][dT][dQ][dC]GG[dV]G[dC]; not fully specified (bridges); also: bicyclic, ring places and kind not given here) [P15, bicyclic D-peptide (library BC-B)]
- accumulation of UDP-MurNAc-pentapeptide [1]: accumulation of UDP-MurNAc-pentapeptide at levels similar to vancomycin
- activity against vancomycin-sensitive bacterial strains [2]: similarly high activity as P14
- MIC B. subtilis (B. subtilis ATCC 6633; Table 5, B. subtilis ATCC 6633): 8 µg/mL
- MIC S. aureus (S. aureus ATCC 6538; Table 5, S. aureus ATCC 6538): 8 µg/mL
- MIC E. faecalis (E. faecalis ATCC 29121; [9]): 16 µg/mL
- MIC MRSA ([3]; Table 5, MRSA ATCC 43300): 32 µg/mL
- MIC VRE (vanA) [4, 10]: >256 µg/mL
- MIC E. coli (E. coli ATCC 25992; Table 5, E. coli ATCC 25992): >256 µg/mL
- MIC VRE (vanB) ([5]; Table 5, low level vancomycin resistant E. faecium ATCC 51299): 128 µg/mL
- lysis / toxicity on red blood cells [6]: neither caused lysis of erythrocytes
- killing kinetics / bactericidal activity (S. aureus): bactericidal activity similar to vancomycin

Molecule: CQTDVCQRTIC ([dC][dQ][dT][dD][dV][dC][dQ][dR][dT][dI][dC]; not fully specified (bridges); also: bicyclic, ring places and kind not given here) [P14, bicyclic D-peptide (library BC-A)]
- accumulation of UDP-MurNAc-pentapeptide [1]: accumulation of UDP-MurNAc-pentapeptide at levels similar to vancomycin
- activity against vancomycin-sensitive bacterial strains [2]: high antibacterial activity
- MIC B. subtilis (B. subtilis ATCC 6633; Table 5, B. subtilis ATCC 6633): 8 µg/mL
- MIC against S. aureus (S. aureus ATCC 6538): 8 µg/mL
- MIC E. faecalis (E. faecalis ATCC 29121; [9]): 32 µg/mL
- MIC against MRSA [3]: 32 µg/mL
- activity against vanA / high-level vancomycin-resistant strain [4]: high antibacterial activity
- MIC VRE (vanA) [4, 10]: 128 µg/mL
- MIC E. coli (E. coli ATCC 25992; Table 5, E. coli ATCC 25992): >256 µg/mL
- MIC against vanB vancomycin-resistant Enterococci [5]: 32 µg/mL
- activity against vanB / low-level vancomycin-resistant strain [5]: high antibacterial activity
- lysis / toxicity on red blood cells [6]: neither caused lysis of erythrocytes
- killing kinetics / bactericidal activity (S. aureus): bactericidal activity similar to vancomycin

Molecule: CC[C@H](C)[C@H](NC(=O)CN)C(=O)NCC(=O)N[C@@H](C)C(=O)N[C@H](C(=O)N[C@@H](CC(C)C)C(=O)N[C@@H](CCCCN)C(=O)N[C@H](C(=O)N[C@@H](CC(C)C)C(=O)N[C@H](C(=O)N[C@H](C(=O)NCC(=O)N[C@@H](CC(C)C)C(=O)N1CCC[C@H]1C(=O)N[C@@H](C)C(=O)N[C@@H](CC(C)C)C(=O)N[C@H](C(=O)N[C@@H](CO)C(=O)N[C@@H](Cc1c[nH]c2ccccc12)C(=O)N[C@H](C(=O)N[C@@H](CCCCN)C(=O)N[C@@H](CCCNC(=N)N)C(=O)N[C@@H](CCCCN)C(=O)N[C@@H](CCCNC(=N)N)C(=O)N[C@@H](CCC(N)=O)C(=O)N[C@@H](CCC(N)=O)C(N)=O)[C@@H](C)CC)[C@@H](C)CC)[C@@H](C)O)[C@@H](C)O)C(C)C)C(C)C [P2, Melittin]
- cytotoxicity on HeLa cells (HeLa cells): toxic

Molecule: CN[C@H](CC(C)C)C(=O)N[C@H]1C(=O)N[C@@H](CC(N)=O)C(=O)N[C@H]2C(=O)N[C@H]3C(=O)N[C@H](C(=O)N[C@H](C(=O)O)c4cc(O)cc(O)c4-c4cc3ccc4O)[C@H](O)c3ccc(c(Cl)c3)Oc3cc2cc(c3O[C@@H]2O[C@H](CO)[C@@H](O)[C@H](O)[C@H]2O[C@H]2C[C@](C)(N)[C@H](O)[C@H](C)O2)Oc2ccc(cc2Cl)[C@H]1O [P1, Vancomycin, reference compound]
- MIC (B. subtilis ATCC 6633; Bacillus subtilis, ATCC6633, read-out: MIC B. subtilis): 0.5 µg/mL (≈ 0.345 µM)
- MIC B. subtilis (B. subtilis ATCC 6633; Table 6, B. subtilis ATCC6633): 0.5 µg/mL (≈ 0.345 µM)
- MIC (S. aureus ATCC 6538; Staphylococcus aureus, ATCC6538, read-out: MIC S. aureus): 0.5 µg/mL (≈ 0.345 µM)
- MIC S. aureus (S. aureus ATCC 6538; Table 6, S. aureus ATCC6538): 0.5 µg/mL (≈ 0.345 µM)
- MIC (E. faecalis ATCC 29121; Enterococcus faecalis, ATCC29121, read-out: MIC E. faecalis): 1 µg/mL (≈ 0.69 µM)
- MIC E. faecalis (E. faecalis ATCC 29121; Table 6, E. faecalis ATCC29121): 1 µg/mL (≈ 0.69 µM)
- MIC ([3]; Staphylococcus aureus, read-out: MIC MRSA): 0.5 µg/mL (≈ 0.345 µM)
- MIC MRSA ([3]; Table 6, MRSA ATCC43300): 0.5 µg/mL (≈ 0.345 µM)
- activity against vanA / high-level vancomycin-resistant strain [4]: no activity
- MIC ([4]; Enterococcus faecium, ATCC51559 / VRE, read-out: MIC VRE (vanA)): > 256 µg/mL
- MIC VRE (vanA) ([4]; Table 6, high level vancomycin resistant E. faecium ATCC51559): >256 µg/mL
- MIC (E. coli ATCC 25992; Escherichia coli, ATCC25992, read-out: MIC E. coli): > 256 µg/mL
- MIC E. coli (E. coli ATCC 25992; Table 6, E. Coli ATCC25992): >256 µg/mL
- MIC ([5]; Enterococcus faecium, ATCC51299 / VRE, read-out: MIC VRE (vanB)): 32 µg/mL (≈ 22.1 µM)
- MIC VRE (vanB) ([5]; Table 6, low level vancomycin resistant E. faecium ATCC51299): 32 µg/mL (≈ 22.1 µM)
- percentage hemolysis of hRBCs ([6]; 0.25% hRBC, 37° C., 1 h): 0%
- cytotoxicity on HeLa cells (HeLa cells): non-toxic
- Kd [7]: ~1 µM
- reduction of binding affinity on D-alanine to D-lactate substitution [8]: ~1000 fold
